From patent EP4775574A1, “FURAN RING-CONTAINING COMPOUND, PHARMACEUTICAL COMPOSITION THEREOF, AND USE THEREOF” (Wuhan Xirui Pharmaceutical Technology Co., Ltd, priority 2023, dated 2025)
Read-outs that look alike come from different tables or passages of the source.

How the values were obtained:
[1] = Pharmacokinetic determination in KM mice; format: in vivo
Protocol: Using KM mice as test animals, the pharmacokinetic behavior of the compounds in the examples in mouse plasma after administration by gavage at a dose of 10 mg/kg or by intravenous injection at a dose of 1 mg/kg was studied.
Male SPF-grade KM mice, with body weight (20 ± 2) g.
Drug preparation for the intragastric administration group: The drug concentration was prepared as 1 mg/mL, and the preparation solvent was Tween80 + 0.5% MC (v/v 1:99).
Drug preparation for the intravenous administration group: The drug concentration was prepared as 0.2 mg/mL, and the preparation solvent was 5% DMA + 5% Solutol HS-15 + 90% normal saline.
Intragastric administration group: The administration dose was 10 mg/kg, and the administration volume was 10 mL/kg.
Intravenous administration group: The administration dose was 1 mg/kg, and the administration volume was 5 mL/kg.
Intragastric administration: Blood was collected from mice before administration (0 h) and after administration at 0, 0.25 h, 0.5 h, 1 h, 2 h, 4 h, 6 h, 8 h, 10 h, and 24 h. Intravenous injection: Blood was collected before administration (0 h) and after administration at 5, 15, 30 min, 1, 2, 4, 6, 8, and 24 h.
Blood, approximately 0.1 mL, was collected by retro-orbital puncture and placed into EDTA-K2 anticoagulant tubes with labels. After blood collection, the tubes were gently and completely inverted three times to mix with the anticoagulant. The samples were then immediately placed in an ice-water bath and centrifuged at 4500 rpm for 10 min at 4°C. After centrifugation, the plasma was promptly aliquoted into EP tubes with corresponding labels and stored in a -80°C freezer.
After administration, 20 µL of mouse plasma was taken and placed into a 96-deep-well plate pre-filled with 20 µL of internal standard working solution. Methanol (400 µL) as the precipitating agent was added, vortexed for 10 min, and centrifuged at 4000 rpm for 15 min. A supernatant of 200 µL was transferred into another 96-deep-well plate pre-filled with 200 µL of ultrapure water, vortexed for 5 min, and centrifuged at 4000 rpm for 3 min. A supernatant of 5 µL was taken for LC-MS/MS analysis of plasma drug concentration.
The main pharmacokinetic parameters were calculated by WinNonlin 7.0, and the pharmacokinetic experimental results of mice are shown in Table 5 below. Table 5: Pharmacokinetic experimental results of mice

hNav1.8 = biological target: T1, hNav1.8 (Homo sapiens, UniProt Q9Y5Y9); assay: Manual patch-clamp IC50 on hNav1.8 channel current (HEK293 hNav1.8/β3); format: cell-based; conditions: HEK293 stably expressing hNav1.8/β3, n = 2, read-out: Inhibitory activity (IC50)
T1 construct: host or cells: HEK293
Protocol: This experiment was performed by detecting the influence of 5 concentrations of the compound or a single point or two concentration points on the hNav1.8 channel current, the dose-response curve of the compound was obtained, and the IC50 was calculated. This experiment was conducted to include two parallel sample determinations.
• 1) Cells: The HEK293 cell line that stably expressed the hNav1.8/β3 ion channel was prepared in-house by the Biology Department of Pharmaron (Beijing) Co., Ltd. (The lentiviral vectors that respectively expressed human Nav1.8 and β3 were transduced into HEK293, and it was prepared after screening. Specific reference: Proc Natl Acad Sci U S A. 2022 Jul 26;119(30):e2208211119. doi: 10.1073/pnas.2208211119. and the Cell Lines / BSYS CHO NaV1.8/β3 Cell Line manual.). The cell line was cultured in a medium containing 90% DMEM, 10% fetal bovine serum, 100 U/mL penicillin-streptomycin solution, 0.75 µg/mL puromycin, and 100 µg/mL hygromycin. When the cell density had grown to 40% to 80% of the bottom area of the culture dish, digestion was performed with trypsin, and passage was carried out three times per week. […]

[2] = male, KM, mouse, in vivo, iv, 1 mg/kg
[3] = male, KM, mouse, in vivo, po, 10 mg/kg

T1 sequence (Q9Y5Y9 whole entry): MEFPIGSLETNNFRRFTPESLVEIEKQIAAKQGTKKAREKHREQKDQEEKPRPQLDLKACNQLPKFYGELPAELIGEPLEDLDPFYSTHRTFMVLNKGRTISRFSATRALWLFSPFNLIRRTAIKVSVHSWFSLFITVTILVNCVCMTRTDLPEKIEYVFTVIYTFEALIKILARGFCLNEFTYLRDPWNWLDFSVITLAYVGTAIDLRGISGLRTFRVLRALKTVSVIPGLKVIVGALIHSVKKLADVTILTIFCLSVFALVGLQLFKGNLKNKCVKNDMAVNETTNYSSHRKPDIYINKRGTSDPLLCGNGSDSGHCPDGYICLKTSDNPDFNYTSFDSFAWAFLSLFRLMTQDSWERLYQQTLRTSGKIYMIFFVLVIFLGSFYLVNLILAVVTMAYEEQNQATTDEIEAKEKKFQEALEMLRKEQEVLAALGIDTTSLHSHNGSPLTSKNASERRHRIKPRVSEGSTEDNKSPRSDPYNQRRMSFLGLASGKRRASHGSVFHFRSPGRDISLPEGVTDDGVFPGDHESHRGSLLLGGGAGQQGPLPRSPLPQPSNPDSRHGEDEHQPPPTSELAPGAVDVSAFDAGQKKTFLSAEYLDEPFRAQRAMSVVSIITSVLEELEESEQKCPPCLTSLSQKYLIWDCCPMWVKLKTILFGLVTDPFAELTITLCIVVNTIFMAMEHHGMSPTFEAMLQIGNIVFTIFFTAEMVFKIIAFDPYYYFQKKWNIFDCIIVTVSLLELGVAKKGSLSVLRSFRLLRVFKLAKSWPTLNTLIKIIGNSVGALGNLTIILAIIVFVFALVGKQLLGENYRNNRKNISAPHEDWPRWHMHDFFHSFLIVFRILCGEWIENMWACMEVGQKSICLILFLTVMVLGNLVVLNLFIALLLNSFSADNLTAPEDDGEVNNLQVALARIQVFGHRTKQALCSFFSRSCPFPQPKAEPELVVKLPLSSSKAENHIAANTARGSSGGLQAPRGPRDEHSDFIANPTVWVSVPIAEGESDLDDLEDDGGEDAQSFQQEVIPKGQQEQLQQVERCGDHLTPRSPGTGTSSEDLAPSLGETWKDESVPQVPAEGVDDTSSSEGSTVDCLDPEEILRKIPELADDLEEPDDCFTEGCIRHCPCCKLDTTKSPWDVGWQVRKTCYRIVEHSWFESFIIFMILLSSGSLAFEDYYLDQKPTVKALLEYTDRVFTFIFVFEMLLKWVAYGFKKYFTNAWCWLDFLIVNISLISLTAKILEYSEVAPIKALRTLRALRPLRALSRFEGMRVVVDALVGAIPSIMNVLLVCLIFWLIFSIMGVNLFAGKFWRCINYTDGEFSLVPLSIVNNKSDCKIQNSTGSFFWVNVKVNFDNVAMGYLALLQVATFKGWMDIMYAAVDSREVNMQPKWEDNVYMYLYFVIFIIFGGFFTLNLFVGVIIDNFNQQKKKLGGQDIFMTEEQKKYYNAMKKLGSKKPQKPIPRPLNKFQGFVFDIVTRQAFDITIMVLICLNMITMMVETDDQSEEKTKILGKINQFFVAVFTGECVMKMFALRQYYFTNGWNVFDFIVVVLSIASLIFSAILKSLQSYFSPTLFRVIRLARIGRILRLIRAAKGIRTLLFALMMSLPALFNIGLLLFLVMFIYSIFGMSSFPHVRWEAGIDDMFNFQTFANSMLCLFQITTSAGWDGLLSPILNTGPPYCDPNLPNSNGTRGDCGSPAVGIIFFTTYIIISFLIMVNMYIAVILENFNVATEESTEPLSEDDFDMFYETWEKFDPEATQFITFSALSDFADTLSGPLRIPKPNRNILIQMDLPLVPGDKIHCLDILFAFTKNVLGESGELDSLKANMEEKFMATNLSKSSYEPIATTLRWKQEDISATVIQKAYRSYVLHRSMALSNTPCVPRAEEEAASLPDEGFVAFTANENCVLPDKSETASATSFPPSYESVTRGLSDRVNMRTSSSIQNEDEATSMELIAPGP
T1 sequence (Q9NY72 25-215 partner limits assumed): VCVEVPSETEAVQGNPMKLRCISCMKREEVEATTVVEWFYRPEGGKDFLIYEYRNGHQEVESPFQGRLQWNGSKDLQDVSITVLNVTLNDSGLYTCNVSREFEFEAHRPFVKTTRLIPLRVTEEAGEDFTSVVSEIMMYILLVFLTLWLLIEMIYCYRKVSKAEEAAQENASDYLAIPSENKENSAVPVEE

bioavailability ([1]; male, KM, mouse, in vivo) [%]	AUC(0-t) [1, 2] [ng·h/mL]	Clearance CL/F [1, 2] [mL/min/kg]	Cmax [1, 2] [ng/mL]	Vd [1, 2] [L/kg]	half-life [1, 2] [h]	AUC(0-t) [1, 3] [ng·h/mL]	Cmax [1, 3] [ng/mL]	Tmax [1, 3] [h]	half-life [1, 3] [h]	Compound	Peak concentration Cmax/C0 ([1]; KM mice, i.g. 10 mg/kg) [ng/mL]	Peak concentration Cmax/C0 ([1]; KM mice, i.v. 1 mg/kg) [ng/mL]	Vd ([1]; mouse, in vivo, iv, KM mice, i.v. 1 mg/kg, read-out: Apparent distribution Vss) [L/kg]	AUC(0-t) ([1]; mouse, in vivo, iv, KM mice, i.v. 1 mg/kg, read-out: Area under the curve AUC0-t) [ng·h/mL]	half-life ([1]; mouse, in vivo, iv, KM mice, i.v. 1 mg/kg, read-out: Half-life t1/2 (converted)) [h]	bioavailability ([1]; mouse, in vivo, po, KM mice, i.g. 10 mg/kg vs i.v. 1 mg/kg, read-out: Bioavailability) [%]	AUC(0-t) ([1]; mouse, in vivo, po, KM mice, i.g. 10 mg/kg, read-out: Area under the curve AUC0-t) [ng·h/mL]	half-life ([1]; mouse, in vivo, po, KM mice, i.g. 10 mg/kg, read-out: Half-life t1/2 (converted)) [h]	Tmax ([1]; mouse, in vivo, po, KM mice, i.g. 10 mg/kg, read-out: Time to peak Tmax) [h]	IC50 (hNav1.8) [pM]
										C[C@H]1[C@@H](c2ccc(F)c(F)c2OC2COC2)[C@H](C(=O)Nc2ccc(F)c(C(=N)NO)c2)O[C@@]1(C)C(F)(F)F [Example 11]	3413.33	612.43	1.4	1060	1.44	71.4	7540	1.37	0.25	229
44.2	1020	15.222	621	2.48	1.99	4530	1330	1	1.97	COc1c([C@H]2[C@H](C(=O)Nc3ccnc(C(N)=O)c3)O[C@@](C)(C(F)(F)F)[C@H]2C)ccc(F)c1F [Reference compound, reference compound]										297
